# Results taken from PubChem BioAssay (NCI).
#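 Cells were grown in 96-well plates and exposed to each compound for 48 hours at five concentrations; endpoints were interpolated linearly between bracketing concentrations, or set to the highest concentration if not reached. TGI: total growth inhibition.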
# What was measured:
# Assay in all cases: NCI tumour cell line growth inhibition, 48 h
# [1] = tested on: 786-0 renal
# [2] = tested on: A549 NSCLC
# [3] = tested on: ACHN renal
# [4] = tested on: BT-549 breast
# [5] = tested on: CAKI-1 renal
# [6] = tested on: CCRF-CEM leukemia
# [7] = tested on: COLO 205 colon
# [8] = tested on: DU-145 prostate
# [9] = tested on: EKVX NSCLC
# [10] = tested on: HCC-2998 colon
# [11] = tested on: HCT-116 colon
# [12] = tested on: HCT-15 colon
# [13] = tested on: HL-60(TB) leukemia
# [14] = tested on: HOP-62 NSCLC
# [15] = tested on: HOP-92 NSCLC
# [16] = tested on: HS 578T breast
# [17] = tested on: HT29 colon
# [18] = tested on: IGROV1 ovarian
# [19] = tested on: K-562 leukemia
# [20] = tested on: KM12 colon
# [21] = tested on: LOX IMVI melanoma
# [22] = tested on: M14 melanoma
# [23] = tested on: MALME-3M melanoma
# [24] = tested on: MCF7 breast
# [25] = tested on: MDA-MB-435
# [26] = tested on: MDA-N
# [27] = tested on: MOLT-4 leukemia
# [28] = tested on: NCI-H226 lung
# [29] = tested on: NCI-H23 lung
# [30] = tested on: NCI-H460 lung
# [31] = tested on: NCI-H522 lung
# [32] = tested on: NCI/ADR-RES ovarian
# [33] = tested on: OVCAR-3 ovarian
# [34] = tested on: OVCAR-4 ovarian
# [35] = tested on: OVCAR-5 ovarian
# [36] = tested on: OVCAR-8 ovarian
# [37] = tested on: PC-3 prostate
# [38] = tested on: RPMI-8226 leukemia
# [39] = tested on: RXF 393 renal
# [40] = tested on: SF-268 CNS
# [41] = tested on: SF-295 CNS
# [42] = tested on: SF-539 CNS
# [43] = tested on: SK-MEL-2 melanoma
# [44] = tested on: SK-MEL-5 melanoma
# [45] = tested on: SK-OV-3 ovarian
# [46] = tested on: SN12C renal
# [47] = tested on: SNB-19 CNS
# [48] = tested on: SR leukemia
# [49] = tested on: SW-620 colon
# [50] = tested on: T-47D breast
# [51] = tested on: TK-10 renal
# [52] = tested on: U251 CNS
# [53] = tested on: UACC-257 melanoma
# [54] = tested on: UACC-62 melanoma
# [55] = tested on: UO-31 renal
# [56] = tested on: A498 renal
# [57] = tested on: MDA-MB-231 breast
# [58] = tested on: SK-MEL-28 melanoma
# [59] = tested on: SNB-75 CNS
compound,measurement,setting,value
Cc1ccc(O)c(C2=CC(c3cccc(Cl)c3)SC(N)=N2)c1 (configuration not stated),TGI,[1],> 100 µM
same,TGI,[2],62.9 µM
same,TGI,[3],54.4 µM
same,TGI,[4],85 µM
same,TGI,[5],> 100 µM
same,TGI,[6],83.1 µM
same,TGI,[7],39.8 µM
same,TGI,[8],> 100 µM
same,TGI,[9],61.8 µM
same,TGI,[10],33.4 µM
same,TGI,[11],39.7 µM
same,TGI,[12],38.2 µM
same,TGI,[13],61.6 µM
same,TGI,[14],64.1 µM
same,TGI,[15],42.9 µM
same,TGI,[16],47.9 µM
same,TGI,[17],46.3 µM
same,TGI,[18],46.5 µM
same,TGI,[19],55.5 µM
same,TGI,[20],89.6 µM
same,TGI,[21],34.7 µM
same,TGI,[22],68.3 µM
same,TGI,[23],62.5 µM
same,TGI,[24],> 100 µM
same,TGI,[25],37.1 µM
same,TGI,[26],39.7 µM
same,TGI,[27],61.4 µM
same,TGI,[28],38.9 µM
same,TGI,[29],80.1 µM
same,TGI,[30],64 µM
same,TGI,[31],34 µM
same,TGI,[32],> 100 µM
same,TGI,[33],90.1 µM
same,TGI,[34],23.6 µM
same,TGI,[35],73.5 µM
same,TGI,[36],> 100 µM
same,TGI,[37],73.6 µM
same,TGI,[38],42.6 µM
same,TGI,[39],63.6 µM
same,TGI,[40],> 100 µM
same,TGI,[41],36.9 µM
same,TGI,[42],53.1 µM
same,TGI,[43],38.2 µM
same,TGI,[44],30.1 µM
same,TGI,[45],80 µM
same,TGI,[46],34.7 µM
same,TGI,[47],37.7 µM
same,TGI,[48],46.5 µM
same,TGI,[49],65.9 µM
same,TGI,[50],99.2 µM
same,TGI,[51],51.7 µM
same,TGI,[52],34.4 µM
same,TGI,[53],46.8 µM
same,TGI,[54],28.8 µM
same,TGI,[55],69.1 µM
N#CC(=N)c1ncn(-c2ccc(N)cc2)c1N,TGI,[1],> 100 µM
same,TGI,[56],> 100 µM
same,TGI,[2],> 100 µM
same,TGI,[3],> 100 µM
same,TGI,[4],> 100 µM
same,TGI,[5],> 100 µM
same,TGI,[6],> 100 µM
same,TGI,[7],> 100 µM
same,TGI,[8],> 100 µM
same,TGI,[9],> 100 µM
same,TGI,[10],> 100 µM
same,TGI,[11],> 100 µM
same,TGI,[12],> 100 µM
same,TGI,[13],> 100 µM
same,TGI,[14],> 100 µM
same,TGI,[16],> 100 µM
same,TGI,[17],> 100 µM
same,TGI,[18],> 100 µM
same,TGI,[19],> 100 µM
same,TGI,[20],> 100 µM
same,TGI,[21],> 100 µM
same,TGI,[22],> 100 µM
same,TGI,[23],> 100 µM
same,TGI,[24],> 100 µM
same,TGI,[57],> 100 µM
same,TGI,[25],> 100 µM
same,TGI,[26],> 100 µM
same,TGI,[27],> 100 µM
same,TGI,[28],> 100 µM
same,TGI,[29],> 100 µM
same,TGI,[30],> 100 µM
same,TGI,[31],> 100 µM
same,TGI,[32],> 100 µM
same,TGI,[33],> 100 µM
same,TGI,[34],> 100 µM
same,TGI,[35],> 100 µM
same,TGI,[36],> 100 µM
same,TGI,[37],> 100 µM
same,TGI,[38],> 100 µM
same,TGI,[40],> 100 µM
same,TGI,[41],> 100 µM
same,TGI,[42],> 100 µM
same,TGI,[43],> 100 µM
same,TGI,[58],> 100 µM
same,TGI,[44],> 100 µM
same,TGI,[45],> 100 µM
same,TGI,[46],> 100 µM
same,TGI,[47],> 100 µM
same,TGI,[59],> 100 µM
same,TGI,[48],> 100 µM
same,TGI,[49],> 100 µM
same,TGI,[50],> 100 µM
same,TGI,[51],> 100 µM
same,TGI,[52],> 100 µM
same,TGI,[53],> 100 µM
same,TGI,[54],> 100 µM
same,TGI,[55],> 100 µM
